In ChEMBL document CHEMBL1201861, “Genomics of Drug Sensitity in Cancer screening data, Wellcome Trust Sanger Institute”:
pIC50: −log10 of the molar value.

Experiments:
Experiment in all cases: cells
NOS-1 = assay type: functional, cell-based, Homo sapiens; details: Homo sapiens, NOS-1;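 further: growth inhibition of the human NOS-1 cell line, read out with a cell viability assay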
Description: SANGER: Inhibition of human NOS-1 cell growth in a cell viability assay.

A388 = assay type: functional, cell-based, Homo sapiens; details: Homo sapiens, A388;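 further: growth inhibition of human A388 cells, read out with a cell viability assay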
Description: SANGER: Inhibition of human A388 cell growth in a cell viability assay.

JVM-2 = assay type: functional, cell-based; details: Homo sapiens;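 further: growth inhibition of JVM-2 cells determined by a cell viability assay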
Description: SANGER: Inhibition of human JVM-2 cell growth in a cell viability assay.

EW-16 = assay type: functional, cell-based, Homo sapiens; details: Homo sapiens, EW-16;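 further: growth inhibition of human EW-16 cells, read out as cell viability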
Description: SANGER: Inhibition of human EW-16 cell growth in a cell viability assay.

NB13 = assay type: functional, cell-based, Homo sapiens; details: Homo sapiens, NB13;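 further: cell viability readout measuring growth inhibition of human NB13 cells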
Description: SANGER: Inhibition of human NB13 cell growth in a cell viability assay.

A253 cell line = assay type: functional, cell-based, Homo sapiens; details: Homo sapiens, A253;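 further: growth inhibition of A253 cells, read out with a cell viability assay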
Description: SANGER: Inhibition of human A253 cell growth in a cell viability assay.

NCI-H1299 = assay type: functional, cell-based, Homo sapiens; details: Homo sapiens, NCI-H1299;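 further: growth inhibition of human NCI-H1299 cells, read out by a cell viability assay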
Description: SANGER: Inhibition of human NCI-H1299 cell growth in a cell viability assay.

RCC10RGB = assay type: functional, cell-based, Homo sapiens; details: Homo sapiens, RCC10RGB;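 further: growth inhibition of human RCC10RGB cells, read out by a cell viability assay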
Description: SANGER: Inhibition of human RCC10RGB cell growth in a cell viability assay.

SNB-75 = assay type: functional, cell-based, Homo sapiens; details: Homo sapiens, SNB-75;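 further: cell viability assay measuring growth inhibition of human SNB-75 cells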
Description: SANGER: Inhibition of human SNB75 cell growth in a cell viability assay.

MLMA = assay type: functional, cell-based, Homo sapiens; details: Homo sapiens, MLMA;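 further: growth inhibition of MLMA cells (human), determined through a cell viability readout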
Description: SANGER: Inhibition of human MLMA cell growth in a cell viability assay.

COLO-824 = assay type: functional, cell-based, Homo sapiens; details: Homo sapiens, COLO-824
Description: SANGER: Inhibition of human COLO-824 cell growth in a cell viability assay.

D-247MG = assay type: functional, cell-based, Homo sapiens; details: Homo sapiens, D-247MG
Description: SANGER: Inhibition of human D-247MG cell growth in a cell viability assay.

LS-411N = assay type: functional, cell-based, Homo sapiens; details: Homo sapiens, LS-411N
C8166 = assay type: functional, cell-based; details: Homo sapiens;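 further: growth inhibition of human C8166 cells measured by a cell viability assay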
Description: SANGER: Inhibition of human C8166 cell growth in a cell viability assay.

NCI-H226 = assay type: functional, cell-based, Homo sapiens; details: Homo sapiens, NCI-H226;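 further: cell viability read-out used to gauge growth inhibition of the cells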
Description: SANGER: Inhibition of human NCI-H226 cell growth in a cell viability assay.

SW684 = assay type: functional, cell-based, Homo sapiens; details: Homo sapiens, SW684;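 further: growth inhibition of human SW684 cells, measured by a cell viability assay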
Description: SANGER: Inhibition of human SW684 cell growth in a cell viability assay.

MS-1 = assay type: functional, cell-based; details: Homo sapiens
Description: SANGER: Inhibition of human MS-1 cell growth in a cell viability assay.

GB-1 = assay type: functional, cell-based, Homo sapiens; details: Homo sapiens, GB-1;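 further: growth of GB-1 cells judged by a viability assay, IC50 marks the concentration inhibiting growth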
Description: SANGER: Inhibition of human GB-1 cell growth in a cell viability assay.

LB1047-RCC = assay type: functional, cell-based, Homo sapiens; details: Homo sapiens, LB1047-RCC;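 further: inhibition of cell growth, determined with a cell viability assay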
Description: SANGER: Inhibition of human LB1047-RCC cell growth in a cell viability assay.

NB6 = assay type: functional, cell-based, Homo sapiens; details: Homo sapiens, NB6;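 further: growth inhibition of NB6 cells, read out by a cell viability assay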
Description: SANGER: Inhibition of human NB6 cell growth in a cell viability assay.

DMS-114 = assay type: functional, cell-based, Homo sapiens; details: Homo sapiens, DMS-114
A101D = assay type: functional, cell-based, Homo sapiens; details: Homo sapiens, A101D;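 further: growth inhibition of the cell line, measured with a viability assay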
Description: SANGER: Inhibition of human A101D cell growth in a cell viability assay.

Compound	pIC50 (NOS-1)	pIC50 (A388)	pIC50 (JVM-2)	pIC50 (EW-16)	pIC50 (NB13)	pIC50 (A253 cell line)	pIC50 (RCC10RGB)	pIC50 (SNB-75)	pIC50 (MLMA)	pIC50 (COLO-824)	pIC50 (D-247MG)	pIC50 (LS-411N)	pIC50 (C8166)	pIC50 (NCI-H226)	pIC50 (SW684)	pIC50 (MS-1)	pIC50 (GB-1)	pIC50 (LB1047-RCC)	pIC50 (NB6)	pIC50 (DMS-114)	further results
CCc1nc(N)nc(N)c1-c1ccc(Cl)cc1 [PYRIMETHAMINE]	5.18	< 4.70	< 4.70	4.80	< 4.70	< 4.70	< 4.70	< 4.70	< 4.70	< 4.70	< 4.70	6.08	< 4.70	< 4.70	< 4.70	< 4.70	< 4.70	< 4.70	< 4.70	< 4.70	pIC50 (NCI-H1299): < 4.70; pIC50 (A101D): < 4.70
O=C(/C=C/c1ccccc1)NC(NC(=S)Nc1cccc2cccnc12)C(Cl)(Cl)Cl (stereo not given) [SALUBRINAL]	< 4.80	< 4.80	< 4.80	< 4.80	< 4.80	< 4.80	< 4.80	< 4.80	< 4.80	< 4.80	< 4.80	< 4.80	< 4.80	< 4.80	< 4.80	< 4.80	< 4.80	< 4.80	< 4.80	< 4.80	pIC50 (A101D): 4.86
Cc1cc(Nc2cc(N3CCN(C)CC3)nc(Sc3ccc(NC(=O)C4CC4)cc3)n2)n[nH]1 [TOZASERTIB]	< 5.70	6.47	< 5.70	6.62	6.55	< 5.70	< 5.70	< 5.70	< 5.70	< 5.70	< 5.70	6.24	< 5.70	< 5.70	< 5.70	< 5.70	< 5.70	< 5.70	6.11	< 5.70	pIC50 (A101D): 5.73
CN1CCN(CCOc2cc(OC3CCOCC3)c3c(Nc4c(Cl)ccc5c4OCO5)ncnc3c2)CC1 [SARACATINIB]	6.22	< 5.70	< 5.70	5.81	< 5.70	< 5.70	< 5.70	< 5.70	< 5.70	< 5.70	< 5.70	< 5.70	< 5.70	< 5.70	< 5.70	< 5.70	5.75	5.81	< 5.70	< 5.70	pIC50 (NCI-H1299): < 5.70; pIC50 (A101D): < 5.70
C=C1C(=O)O[C@@H]2C3O[C@]3(C)CC/C=C(\C)CC[C@@H]12 (stereo not given in full)	< 5.30	< 5.30	< 5.30	< 5.30	< 5.30	< 5.30	< 5.30	< 5.30	< 5.30	< 5.30	< 5.30	< 5.30	< 5.30	< 5.30	< 5.30	< 5.30	< 5.30	< 5.30	< 5.30	< 5.30	pIC50 (NCI-H1299): < 5.30; pIC50 (A101D): < 5.30
CO[C@H]1C[C@@H]2CC[C@@H](C)[C@@](O)(O2)C(=O)C(=O)N2CCCC[C@H]2C(=O)O[C@H]([C@H](C)C[C@@H]2CC[C@@H](O)[C@H](OC)C2)CC(=O)[C@H](C)/C=C(\C)[C@@H](O)[C@@H](OC)C(=O)[C@H](C)C[C@H](C)/C=C/C=C/C=C/1C [SIROLIMUS]	9.06	7.35	< 7.00	7.57	8.36	< 7.00	< 7.00	< 7.00	< 7.00	< 7.00	< 7.00	7.11	< 7.00	< 7.00	< 7.00	< 7.00	< 7.00	7.46	< 7.00	< 7.00	pIC50 (NCI-H1299): < 7.00; pIC50 (A101D): 7.49
CCC(=O)N1CCN(c2ccc(-n3c(=O)ccc4cnc5ccc(-c6cnc7ccccc7c6)cc5c43)cc2C(F)(F)F)CC1 [TORIN1]	8.62	7.16	< 5.92	7.92	7.32	6.00	< 5.92	7.20	7.17	6.06	< 5.92	7.84	< 5.92	< 5.92	< 5.92	6.40	7.81	7.60	7.28	6.62	pIC50 (A101D): 7.58
CNC(=O)c1cc(Oc2ccc(NC(=O)Nc3ccc(Cl)c(C(F)(F)F)c3)cc2)ccn1 [SORAFENIB]	6.25	5.80	< 5.40	< 5.40	< 5.40	< 5.40	< 5.40	< 5.40	< 5.40	< 5.40	5.67	< 5.40	< 5.40	< 5.40	< 5.40	< 5.40	< 5.40	< 5.40	< 5.40	< 5.40	pIC50 (NCI-H1299): < 5.40; pIC50 (A101D): < 5.40
CS(=O)(=O)CCNCc1ccc(-c2ccc3ncnc(Nc4ccc(OCc5cccc(F)c5)c(Cl)c4)c3c2)o1 [LAPATINIB]	< 5.70	6.14	< 5.70	< 5.70	< 5.70	5.70	< 5.70	< 5.70	< 5.70	< 5.70	< 5.70	< 5.70	< 5.70	< 5.70	< 5.70	< 5.70	< 5.70	< 5.70	< 5.70	< 5.70	pIC50 (A101D): < 5.70
CC1=C2C[C@H]3[C@@H](CC=C4C[C@@H](O)CC[C@@]43C)[C@@H]2CC[C@]12O[C@@H]1C[C@H](C)CN[C@H]1[C@H]2C [CYCLOPAMINE]	< 4.80	< 4.80	< 4.80	< 4.80	< 4.80	< 4.80	< 4.80	< 4.80	< 4.80	< 4.80	< 4.80	< 4.80	< 4.80	< 4.80	< 4.80	< 4.80	< 4.80	< 4.80	< 4.80	< 4.80	pIC50 (A101D): < 4.80
